Assay results reported in patent US9708314B2, “Heterocyclic amide compound” (NISSAN CHEMICAL INDUSTRIES, LTD., priority 2013, dated 2017).

Columns and labels:
Assay type in all cases: in vivo
Glycine max = assay: Test Example 4: effect on crop by application to foliage (diluvial soil, plastic box); details: Application herbicide amount 320 g/ha; effect on crop
Outline: (§1)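 Emulsion-formulated compound, diluted to a predetermined g/ha dose, applied by small sprayer to leaves and stems of 14-day-old seedlings grown in sterilized diluvial soil. Effect rated on 0–5 herbicidal-ratio scale three weeks on.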

Triticum aestivum = assay: as above; details: Application herbicide amount 320 g/ha; effect on crop
Outline: as §1

[1] = tested on: Beta vulgaris ssp. vulgaris; assay: as above; details: Application herbicide amount 320 g/ha; effect on crop
Outline: as §1

Brassica campestris L. = assay: as above; details: Application herbicide amount 320 g/ha; effect on crop
Outline: as §1

Zea mays = assay: as above; details: Application herbicide amount 320 g/ha; effect on crop
Outline: as §1

[2] = tested on: directly sowed Oryza sativa; assay: as above; details: Application herbicide amount 320 g/ha; effect on crop
Outline: as §1

Alopecurus myosuroides = assay: Test Example 4: herbicidal effect by application to foliage (diluvial soil, plastic box); details: Application herbicide amount 320 g/ha
Outline: as §1

Apera spica-venti. = assay: as above; details: Application herbicide amount 320 g/ha
Outline: as §1

Veronica persica = assay: as above; details: Application herbicide amount 320 g/ha
Outline: as §1

Digitaria ciliaris = assay: as above; details: Application herbicide amount 320 g/ha
Outline: as §1

Abutilon theophrasti = assay: as above; details: Application herbicide amount 320 g/ha
Outline: as §1

Setaria viridis = assay: as above; details: Application herbicide amount 320 g/ha
Outline: as §1

Galium spurium = assay: as above; details: Application herbicide amount 320 g/ha
Outline: as §1

[3] = tested on: Echinochloa crus-galli var. crus-galli; assay: as above; details: Application herbicide amount 320 g/ha
Outline: as §1

Lolium multiflorum Lam. = assay: as above; details: Application herbicide amount 320 g/ha
Outline: as §1

Avena fatua = assay: as above; details: Application herbicide amount 320 g/ha
Outline: as §1

Chenopodium album = assay: as above; details: Application herbicide amount 320 g/ha
Outline: as §1

In the case of Cc1nnc(NC(=O)c2ccc(C(F)(F)F)n3c(CO)nnc23)o1 [1-067], the c (Glycine max) is reported as 0 (Herbicidal ratio of 5% or less (almost no effect)), the e (Triticum aestivum) is reported as 0 (Herbicidal ratio of 5% or less (almost no effect)) and the f [1] is reported as 4 (Herbicidal ratio of 70% or more and less than 90%). The g (Brassica campestris L.) was 4 (Herbicidal ratio of 70% or more and less than 90%), the b (Zea mays) was 2 (Herbicidal ratio of 20% or more and less than 40%) and the d [2] was 3 (Herbicidal ratio of 40% or more and less than 70%). For the same molecule, the J (Alopecurus myosuroides) was 0 (Herbicidal ratio of 5% or less (almost no effect)), the L (Apera spica-venti.) was 0 (Herbicidal ratio of 5% or less (almost no effect)) and the R (Veronica persica) was 4 (Herbicidal ratio of 70% or more and less than 90%). For the same molecule, the F (Digitaria ciliaris) was 5 (Herbicidal ratio of 90% or more (almost completely withered)), the M (Abutilon theophrasti) was 4 (Herbicidal ratio of 70% or more and less than 90%) and the G (Setaria viridis) was 4 (Herbicidal ratio of 70% or more and less than 90%). For the same molecule, the Q (Galium spurium) was 3 (Herbicidal ratio of 40% or more and less than 70%), the H [3] was 5 (Herbicidal ratio of 90% or more (almost completely withered)) and the K (Lolium multiflorum Lam.) was 0 (Herbicidal ratio of 5% or less (almost no effect)). The I (Avena fatua) was 1 (Herbicidal ratio of 5% or more and less than 20%) and the O (Chenopodium album) was 5 (Herbicidal ratio of 90% or more (almost completely withered)).

In the case of C#CC[S+]([O-])c1nnc2c(C(=O)Nc3nnc(C)o3)ccc(C(F)(F)F)n12 (stereo not shown) [1-077], the c (Glycine max) is reported as 0 (Herbicidal ratio of 5% or less (almost no effect)), the e (Triticum aestivum) is reported as 0 (Herbicidal ratio of 5% or less (almost no effect)) and the f [1] is reported as 3 (Herbicidal ratio of 40% or more and less than 70%). For the same molecule, the g (Brassica campestris L.) was 3 (Herbicidal ratio of 40% or more and less than 70%), the b (Zea mays) was 0 (Herbicidal ratio of 5% or less (almost no effect)) and the d [2] was 3 (Herbicidal ratio of 40% or more and less than 70%). The J (Alopecurus myosuroides) was 0 (Herbicidal ratio of 5% or less (almost no effect)), the L (Apera spica-venti.) was 0 (Herbicidal ratio of 5% or less (almost no effect)) and the R (Veronica persica) was 3 (Herbicidal ratio of 40% or more and less than 70%). For the same molecule, the F (Digitaria ciliaris) was 4 (Herbicidal ratio of 70% or more and less than 90%), the M (Abutilon theophrasti) was 2 (Herbicidal ratio of 20% or more and less than 40%) and the G (Setaria viridis) was 2 (Herbicidal ratio of 20% or more and less than 40%). The Q (Galium spurium) was 1 (Herbicidal ratio of 5% or more and less than 20%), the H [3] was 4 (Herbicidal ratio of 70% or more and less than 90%) and the K (Lolium multiflorum Lam.) was 0 (Herbicidal ratio of 5% or less (almost no effect)). The I (Avena fatua) was 0 (Herbicidal ratio of 5% or less (almost no effect)) and the O (Chenopodium album) was 5 (Herbicidal ratio of 90% or more (almost completely withered)).

Cc1nnc(NC(=O)c2cc(C)c(C(F)(F)F)n3c(C(C)C)nnc23)o1 [1-075] was tested, and the c (Glycine max) was 0 (Herbicidal ratio of 5% or less (almost no effect)), the e (Triticum aestivum) was 0 (Herbicidal ratio of 5% or less (almost no effect)) and the f [1] was 1 (Herbicidal ratio of 5% or more and less than 20%). For the same molecule, the g (Brassica campestris L.) was 1 (Herbicidal ratio of 5% or more and less than 20%), the b (Zea mays) was 0 (Herbicidal ratio of 5% or less (almost no effect)) and the d [2] was 0 (Herbicidal ratio of 5% or less (almost no effect)). For the same molecule, the J (Alopecurus myosuroides) was 0 (Herbicidal ratio of 5% or less (almost no effect)), the L (Apera spica-venti.) was 0 (Herbicidal ratio of 5% or less (almost no effect)) and the R (Veronica persica) was 3 (Herbicidal ratio of 40% or more and less than 70%). The F (Digitaria ciliaris) was 3 (Herbicidal ratio of 40% or more and less than 70%), the M (Abutilon theophrasti) was 1 (Herbicidal ratio of 5% or more and less than 20%) and the G (Setaria viridis) was 1 (Herbicidal ratio of 5% or more and less than 20%). The Q (Galium spurium) was 0 (Herbicidal ratio of 5% or less (almost no effect)), the H [3] was 3 (Herbicidal ratio of 40% or more and less than 70%) and the K (Lolium multiflorum Lam.) was 0 (Herbicidal ratio of 5% or less (almost no effect)). For the same molecule, the I (Avena fatua) was 0 (Herbicidal ratio of 5% or less (almost no effect)) and the O (Chenopodium album) was 5 (Herbicidal ratio of 90% or more (almost completely withered)).

For Cc1nnc(NC(=O)c2ccc(C(F)(F)F)n3c(Nc4ccccc4)nnc23)o1 [1-082], the c (Glycine max) was 0 (Herbicidal ratio of 5% or less (almost no effect)), the e (Triticum aestivum) was 0 (Herbicidal ratio of 5% or less (almost no effect)) and the g (Brassica campestris L.) was 0 (Herbicidal ratio of 5% or less (almost no effect)). For the same molecule, the b (Zea mays) was 0 (Herbicidal ratio of 5% or less (almost no effect)), the d [2] was 3 (Herbicidal ratio of 40% or more and less than 70%) and the J (Alopecurus myosuroides) was 0 (Herbicidal ratio of 5% or less (almost no effect)). The L (Apera spica-venti.) was 1 (Herbicidal ratio of 5% or more and less than 20%), the R (Veronica persica) was 4 (Herbicidal ratio of 70% or more and less than 90%) and the F (Digitaria ciliaris) was 4 (Herbicidal ratio of 70% or more and less than 90%). For the same molecule, the M (Abutilon theophrasti) was 4 (Herbicidal ratio of 70% or more and less than 90%), the G (Setaria viridis) was 3 (Herbicidal ratio of 40% or more and less than 70%) and the Q (Galium spurium) was 0 (Herbicidal ratio of 5% or less (almost no effect)). For the same molecule, the H [3] was 4 (Herbicidal ratio of 70% or more and less than 90%), the K (Lolium multiflorum Lam.) was 1 (Herbicidal ratio of 5% or more and less than 20%) and the I (Avena fatua) was 0 (Herbicidal ratio of 5% or less (almost no effect)). The O (Chenopodium album) was 5 (Herbicidal ratio of 90% or more (almost completely withered)).
